Among the data in patent publication US6376230B1 (dated 2002) are melting point values, retold here.

Consider `CC1=C(O)CCOC1=O`, for which the melting point (usually the temperature, or range, at which the solid turns liquid) is 138 to 144 °C (dec.).
Regarding `CCCCCCC1=C(O)CCOC1=O`, the melting point is 98 to 99 °C (dec.).
